Each structure is given as a SMILES string. Active and inactive are the calls of the source. The rule behind the calls is not given here.

For this test, the system named is Clostridioides difficile clinical isolate growth, OD600, 24 h. The experiment in a line: inhibitors of Clostridioides difficile proliferation – 4-point retest, confirmation (AID 1224921).
Take `O=C(C[C@H]1CC[C@@H]2[C@H](COC[C@@H](O)CN2C(=O)Nc2ccc(Cl)c(Cl)c2)O1)NCc1ccc(Cl)c(Cl)c1`: the AC50 is 3.34 µM. Take `C[C@H](C(=O)N(C)C[C@@H]1OCc2ccccc2-c2ccccc2C(=O)N([C@H](C)CO)C[C@@H]1C)c1ccccc1`: the AC50 is > 60 µM (inactive).

For the molecule `C[C@@H]1CCCCO[C@@H](CN(C)CC2CC2)[C@@H](C)CN([C@H](C)CO)C(=O)c2cc(NC(=O)Nc3ccc(C(F)(F)F)cc3)ccc2O1`, the AC50 was 35.5 µM.

On to `CO[C@H]1CN(C)C(=O)c2ccc(NC(=O)c3nc4ccccc4s3)cc2OC[C@H](C)N(Cc2ccncc2)C[C@@H]1C`, for which the AC50 is > 60 µM (inactive). The value for `O=C(C[C@@H]1CC[C@@H]2[C@H](COC[C@H](O)CN2C(=O)Nc2ccc(C(F)(F)F)cc2)O1)NCC1CC1` was 1.14 µM; that for `O=C(C[C@H]1CC[C@H]2[C@@H](COC[C@H](O)CN2C(=O)Nc2ccc(Cl)c(Cl)c2)O1)NCc1ccc(Cl)c(Cl)c1` was 0.886 µM; that for `CC(=O)N[C@H]1CC[C@H](CCNC(=O)Nc2ccc(C(F)(F)F)cc2)O[C@@H]1CO` was 9.65 µM.

For `O=C(C[C@@H]1CC[C@H]2[C@@H](COC[C@H](O)CN2S(=O)(=O)c2ccccc2)O1)NCC1CCCCC1`, the AC50 was 15.6 µM. As for `O=C(C[C@H]1CC[C@@H]2[C@H](COC[C@H](O)CN2C(=O)Nc2ccc(C(F)(F)F)cc2)O1)NCC1CC1`, the AC50 was 3.63 µM. For `O=C(C[C@@H]1CC[C@H]2[C@@H](COC[C@@H](O)CN2S(=O)(=O)c2ccc(Cl)cc2)O1)NCC1CCCCC1`, the half-maximal activity concentration (AC50) was 15.8 µM.

Take `C[C@@H]1CN([C@H](C)CO)C(=O)c2cccc(NC(=O)Nc3ccc(C(F)(F)F)cc3)c2O[C@@H]1CN(C)Cc1ccc(Oc2ccccc2)cc1`: the AC50 was 18.8 µM. For `CO[C@H](CN(C)C(=O)C1CCOCC1)[C@H](C)CN(C(=O)Nc1ccc(C(F)(F)F)cc1)[C@H](C)CO` the value was 5.96 µM; for `CCC(=O)N[C@@H]1CC[C@@H](CCNC(=O)Nc2ccc(C(F)(F)F)cc2)O[C@@H]1CO`, 3.9 µM. For `C[C@H]1CN([C@@H](C)CO)C(=O)c2cc(C#CCc3ccccc3)cnc2O[C@@H]1CN(C)CC1CCCC1` the value was 29.7 µM. On to `C[C@@H]1CCCCO[C@H](CN(C)Cc2ccccc2)[C@@H](C)CN([C@@H](C)CO)C(=O)c2cc(NC(=O)Nc3ccc(C(F)(F)F)cc3)ccc2O1`, for which the AC50 is 12.5 µM.

For `CNC(=O)C[C@H]1CC[C@H]2[C@@H](COC[C@H](O)CN2C(=O)Nc2ccc(Cl)c(Cl)c2)O1`, the AC50 was less than 1.95 µM. The value for `O=C(Nc1ccc(-c2ccccc2)cc1)[C@H]1[C@H](CO)[C@H]2Cn3c(cccc3=O)[C@H]2N1CC1CCCCC1` was > 60 µM (inactive). For the molecule `COc1ccccc1S(=O)(=O)N[C@@H]1C=C[C@@H](CC(=O)N2CCCCC2)O[C@H]1CO`, the AC50 was > 60 µM (inactive).

On to `C[C@@H]1CN([C@@H](C)CO)C(=O)c2cc(NC(=O)Nc3ccc(C(F)(F)F)cc3)ccc2O[C@@H](C)CCCCO[C@H]1CN(C)CC1CCCCC1`, for which the AC50 is 4.9 µM. The value for `COc1ccccc1CNC(=O)C[C@@H]1CC[C@@H]2[C@H](COC[C@@H](O)CN2C(=O)Nc2ccc(C(F)(F)F)cc2)O1` was 1.6 µM; that for `C[C@@H]1CN([C@H](C)CO)C(=O)c2cc(C#Cc3ccccc3F)cnc2O[C@H]1CN(C)C` was 23.3 µM; that for `CCCNC(=O)C[C@@H]1CC[C@H]2[C@@H](COC[C@H](O)CN2C(=O)Nc2ccc(Cl)c(Cl)c2)O1` was 5.98 µM. `CO[C@H]1CN(C)C(=O)c2ccc(NC(=O)Nc3cc(Cl)cc(Cl)c3)cc2OC[C@H](C)NC[C@H]1C`: the AC50 is 14 µM. For `C[C@@H]1CN([C@@H](C)CO)C(=O)c2cccc(NC(=O)Nc3ccc(C(F)(F)F)cc3)c2O[C@@H]1CN(C)Cc1ccc(Oc2ccccc2)cc1` the value was less than 0.5 µM; for `C[C@@H]1CN([C@H](C)CO)C(=O)c2cc(NC(=O)Nc3ccc(C(F)(F)F)cc3)ccc2O[C@@H](C)CCCCO[C@H]1CN(C)Cc1ccc2c(c1)OCO2`, 7.9 µM. The value for `O=C(C[C@H]1CC[C@H]2[C@@H](COC[C@@H](O)CN2C(=O)c2cnccn2)O1)NCc1ccc(Cl)cc1` was > 60 µM (inactive); that for `COc1ccccc1CNC(=O)C[C@H]1CC[C@H]2[C@@H](COC[C@@H](O)CN2C(=O)Nc2ccc(C(F)(F)F)cc2)O1` was 2.4 µM; that for `O=C(C[C@@H]1CC[C@@H]2[C@H](COC[C@H](O)CN2C(=O)Nc2cc(Cl)cc(Cl)c2)O1)N1CCOCC1` was 6.6 µM. For `O=C(C[C@@H]1CC[C@H]2[C@@H](COC[C@H](O)CN2S(=O)(=O)c2ccc(Cl)cc2)O1)NCc1ccc(Cl)c(Cl)c1` the value was 30.9 µM; for `C[C@@H]1CN([C@H](C)CO)C(=O)Cc2cc(NS(=O)(=O)c3ccc(Cl)cc3)ccc2O[C@H]1CN(C)CC1CCCCC1`, 18 µM; for `CO[C@@H]1CN(C)C(=O)c2ccc(NC(=O)c3ccccc3)cc2OC[C@H](C)N(C(=O)C2CC2)C[C@H]1C`, > 60 µM (inactive). Take `CNC(=O)C[C@H]1CC[C@@H]2[C@H](COC[C@@H](O)CN2C(=O)Nc2ccc(Cl)c(Cl)c2)O1`: the AC50 was 8.58 µM. For `COc1ccc(CN(C)C[C@@H]2OCCCC[C@H](C)Oc3ccc(NC(=O)Nc4ccc(C(F)(F)F)cc4)cc3C(=O)N([C@H](C)CO)C[C@H]2C)cc1` the value was 3.24 µM.

`O=C(C[C@H]1CC[C@H]2[C@@H](COC[C@H](O)CN2C(=O)Nc2ccc(Cl)c(Cl)c2)O1)NCc1ccncc1`: the AC50 was 0.575 µM. For `C[C@@H]1CCCCO[C@@H](CN(C)CC2CCCCC2)[C@@H](C)CN([C@@H](C)CO)C(=O)c2cc(NC(=O)Nc3ccc(C(F)(F)F)cc3)ccc2O1` the value was 10.7 µM; for `C[C@@H](NC(=O)C[C@H]1CC[C@@H]2[C@H](COC[C@H](O)CN2C(=O)Nc2cc(Cl)cc(Cl)c2)O1)c1ccccc1`, 10.9 µM. In the case of `CO[C@H]1CN(C)C(=O)c2cc(NC(=O)Nc3ccc(Cl)c(Cl)c3)ccc2OC[C@@H](C)NC[C@H]1C`, the AC50 was 9.16 µM. The value for `O=C(C[C@H]1CC[C@H]2[C@@H](COC[C@H](O)CN2C(=O)Nc2ccc(C(F)(F)F)cc2)O1)NC1Cc2ccccc2C1` was 1.54 µM; that for `CN(C)CC(=O)N[C@H]1CC[C@H](CCNC(=O)Nc2ccc(C(F)(F)F)cc2)O[C@H]1CO` was 10.9 µM; that for `C[C@@H]1CN([C@@H](C)CO)C(=O)c2cccc(NC(=O)Nc3ccc(C(F)(F)F)cc3)c2O[C@@H]1CN(C)Cc1ccccc1` was 3.65 µM. For `CO[C@@H](CN(C)Cc1cc(F)ccc1F)[C@@H](C)CN(C(=O)Nc1ccc(C(F)(F)F)cc1)[C@H](C)CO` the value was 6.79 µM. On to `O=C(NCC[C@@H]1CC[C@@H](NC(=O)C2CC2)[C@@H](CO)O1)Nc1ccc(C(F)(F)F)cc1`, for which the AC50 is 10.7 µM. As to `CCC(=O)N[C@@H]1CC[C@H](CCNC(=O)Nc2ccc(C(F)(F)F)cc2)O[C@@H]1CO`, the AC50 was 4.29 µM. Consider `O=C(C[C@@H]1CC[C@H]2[C@@H](COC[C@@H](O)CN2C(=O)Nc2cc(Cl)cc(Cl)c2)O1)N1CCOCC1`, for which the AC50 was 10.7 µM.

Take `O=C(C[C@@H]1CC[C@H]2[C@@H](COC[C@H](O)CN2C(=O)Nc2ccc(Cl)c(Cl)c2)O1)NCc1ccncc1`: the AC50 is 3.77 µM.

Turning to `C=C1CC(c2ccc(-c3ccccc3)cc2)OC1=O` (stereo unspecified), the AC50 was 13.7 µM.

As for `O=C(C[C@H]1CC[C@@H]2[C@H](COC[C@H](O)CN2C(=O)Nc2ccc(Cl)c(Cl)c2)O1)NCc1ccc(F)cc1`, the AC50 is 1.91 µM. For `C[C@@H]1CN([C@H](C)CO)S(=O)(=O)c2ccc(C#Cc3cccc(F)c3)cc2O[C@H]1CN(C)C` the value was > 60 µM (inactive).

As to `O=C(C[C@@H]1CC[C@@H]2[C@H](COC[C@H](O)CN2C(=O)Nc2ccc(Cl)c(Cl)c2)O1)NC1CCC1`, the AC50 was 7.33 µM. The value for `C[C@H]1CN([C@@H](C)CO)C(=O)c2cccc(NC(=O)Nc3ccccc3)c2O[C@H]1CN(C)C(=O)Nc1ccc(C(F)(F)F)cc1` was 28.2 µM. For `N#C[C@@H]1[C@H](c2ccc(C#Cc3ccc(F)cc3)cc2)[C@@H](CO)N1C(=O)C1CCC1` the value was > 60 µM (inactive); for `CO[C@H](CN(C)C(=O)C1CC1)[C@H](C)CN(C(=O)Nc1ccc(C(F)(F)F)cc1)[C@@H](C)CO`, 14.7 µM.

Regarding `CO[C@@H]1CN(C)C(=O)c2cc(NC(=O)c3cc(C)on3)ccc2OC[C@H](C)N(C(C)=O)C[C@@H]1C`, the AC50 was > 60 µM (inactive).

Take `CO[C@H](CN(C)Cc1cc(F)ccc1F)[C@H](C)CN(C(=O)Nc1ccc(C(F)(F)F)cc1)[C@@H](C)CO`: the AC50 is 7.48 µM. As for `CO[C@H]1CN(C)C(=O)c2ccc(NC(=O)c3nc4ccccc4s3)cc2OC[C@@H](C)N(Cc2ccncc2)C[C@@H]1C`, the AC50 was 30.8 µM. `CO[C@@H]1CN(C)C(=O)c2ccc(NC(=O)Nc3cc(Cl)cc(Cl)c3)cc2OC[C@H](C)NC[C@@H]1C`: the AC50 was 8.07 µM. The value for `O=C(C[C@H]1CC[C@H]2[C@@H](COC[C@H](O)CN2C(=O)Nc2ccc(Cl)c(Cl)c2)O1)NCc1ccccc1` was 1.11 µM.

In the case of `C[C@@H]1CCCCO[C@@H](CN(C)Cc2ccccc2)[C@H](C)CN([C@H](C)CO)C(=O)c2cc(NC(=O)Nc3ccc(C(F)(F)F)cc3)ccc2O1`, the AC50 is 21.9 µM. As for `C[C@@H]1CCCCO[C@H](CN(C)CC2CCCCC2)[C@H](C)CN([C@H](C)CO)C(=O)c2cc(NC(=O)Nc3ccc(C(F)(F)F)cc3)ccc2O1`, the AC50 is 13.6 µM.

With `O=C(C[C@@H]1CC[C@@H]2[C@H](COC[C@@H](O)CN2C(=O)Nc2ccc(Cl)c(Cl)c2)O1)NC1CCC1`, the AC50 is 2.82 µM. For the molecule `C[C@H](CO)N1C[C@H](C)[C@H](CN(C)C(=O)Nc2ccccc2)Oc2c(NC(=O)Nc3ccc(C(F)(F)F)cc3)cccc2C1=O`, the AC50 was 26.5 µM. As for `CCNC(=O)C[C@H]1CC[C@@H]2[C@H](COC[C@@H](O)CN2C(=O)Nc2ccc(Cl)c(Cl)c2)O1`, the AC50 was 4.25 µM. The value for `CCCN(C)C[C@@H]1OCCCC[C@H](C)Oc2ccc(NC(=O)Nc3ccc(C(F)(F)F)cc3)cc2C(=O)N([C@H](C)CO)C[C@@H]1C` was 4.61 µM; that for `O=C(C[C@H]1CC[C@@H](NC(=O)CCN2CCCCC2)[C@H](CO)O1)Nc1nccs1` was > 60 µM (inactive). `CCC(=O)N[C@H]1CC[C@@H](CCNC(=O)Nc2ccc(C(F)(F)F)cc2)O[C@@H]1CO`: the AC50 was 2.73 µM. As to `COc1ccccc1S(=O)(=O)N(C)C[C@@H]1OCc2ccccc2-c2c(n(C)c3ccccc23)C(=O)N([C@H](C)CO)C[C@@H]1C`, the AC50 was > 60 µM (inactive).

Source of the values: PubChem BioAssay AID1224921 (Broad Institute, 2016).
